Here are results for six molecules from patent US11771709B2, “ALK protein degradation agent and anti-tumor application thereof” (ShanghaiTech University, priority 2017, dated 2023).

pIC50: −log10 of the molar value.

The test system of assay [1] is U118MG cells (FIG-ROS1 gene fusion). The assay can be described thus: Growth inhibition IC50 in ROS1 mutant glioblastoma cell line U118MG (72 hours). Type of assay: cell-based. The following applies: Homo sapiens, U-118-MG, 72 h, read-out: Half Inhibitory Concentration (IC50) Mean.
In another assay the test system is MOLM13 cells (FLT3-ITD). The assay can be described thus: Growth inhibition IC50 in FLT3-ITD AML cell line MOLM13. Type of assay: cell-based. As to conditions: Homo sapiens, MOLM-13, read-out: Half Inhibitory Concentration (IC50) Mean.
The next assay relates to SR (NPM-ALK) cells. The assay can be described thus: Growth inhibition IC50 in ALCL SR cells (CCK8/WST, 72 hours). Type of assay: cell-based. As to conditions: SR cells, WST; Ceritinib based ALK PROTAD compounds (Table 5).
For assay [2], the target named is T1, ALK protein in H3122 (EML4-ALK) cells (Homo sapiens, UniProt Q9UM73).
T1 construct: EML4 (Echinoderm microtubule-associated protein-like 4, Q9HC35) fusion partner, variant 1; host or cells: NCI-H3122 lung adenocarcinoma cells; the other entry of the earlier key: EML4 (Q9HC35, Echinoderm microtubule-associated protein-like 4)
In words: Western blot of ALK protein level (degradation, DC50), ALK phosphorylation and downstream signaling in H3122 cells. The following applies: ALK protein degradation in H3122 cells. Type of assay: cell-based. (In general: Immunoblotting shows a protein as a band on a membrane.)
Protocol: Cancer cells were seeded in 1 ml RPMI1640 medium in 24-well plate at the density of 3×10^5 or 1.5×10^5 cells/ml. […] Then cells were washed twice with PBS and lyzed in RIPA lysis buffer with Halt Proteinase and Phosphotase inhibitor. Equal amount of proteins were loaded to run SDS-PAGE gels after denature. The gels were blotted to PVDF membrane. After incubating with first and secondary antibodies, the images were developed using SuperSignal West Pico Chemiluminescent Substrate.
DC50 (concentration required to degrade protein by half) were calculated based on the intensity from western blot, and data were analyzed via Prism GraphPad with non-linear regression.

The subject of assay [3] is NCI-H3122 (EML4-ALK, V1) cells. The assay can be described thus: Growth inhibition IC50 in lung cancer H3122 cells (Cell Titer Blue / Cell Titer Glo). As to conditions: Homo sapiens, NCI-H3122, H3122 cells.
Protocol: (§1) SR (NPM-ALK) and NCI-H2228 (EML4-ALK, V3) cells were purchased from ATCC. […] All Cells were cultured in RPMI1640 medium with 10% FBS and Penicillin-Streptomycin in 37° C. incubator with 5% CO2.
(§2) Cells were seeded at specific density in 96 well plates one day before treatment. […] Viable cells were measured via CCK8 reagent and IC50s were calculated via Prism Graphad. Experiments were repeated at least three times.

Broadly, the DC50 is the concentration giving 50% degradation.

T1 sequence (Q9UM73 with tags, fused parts or gaps): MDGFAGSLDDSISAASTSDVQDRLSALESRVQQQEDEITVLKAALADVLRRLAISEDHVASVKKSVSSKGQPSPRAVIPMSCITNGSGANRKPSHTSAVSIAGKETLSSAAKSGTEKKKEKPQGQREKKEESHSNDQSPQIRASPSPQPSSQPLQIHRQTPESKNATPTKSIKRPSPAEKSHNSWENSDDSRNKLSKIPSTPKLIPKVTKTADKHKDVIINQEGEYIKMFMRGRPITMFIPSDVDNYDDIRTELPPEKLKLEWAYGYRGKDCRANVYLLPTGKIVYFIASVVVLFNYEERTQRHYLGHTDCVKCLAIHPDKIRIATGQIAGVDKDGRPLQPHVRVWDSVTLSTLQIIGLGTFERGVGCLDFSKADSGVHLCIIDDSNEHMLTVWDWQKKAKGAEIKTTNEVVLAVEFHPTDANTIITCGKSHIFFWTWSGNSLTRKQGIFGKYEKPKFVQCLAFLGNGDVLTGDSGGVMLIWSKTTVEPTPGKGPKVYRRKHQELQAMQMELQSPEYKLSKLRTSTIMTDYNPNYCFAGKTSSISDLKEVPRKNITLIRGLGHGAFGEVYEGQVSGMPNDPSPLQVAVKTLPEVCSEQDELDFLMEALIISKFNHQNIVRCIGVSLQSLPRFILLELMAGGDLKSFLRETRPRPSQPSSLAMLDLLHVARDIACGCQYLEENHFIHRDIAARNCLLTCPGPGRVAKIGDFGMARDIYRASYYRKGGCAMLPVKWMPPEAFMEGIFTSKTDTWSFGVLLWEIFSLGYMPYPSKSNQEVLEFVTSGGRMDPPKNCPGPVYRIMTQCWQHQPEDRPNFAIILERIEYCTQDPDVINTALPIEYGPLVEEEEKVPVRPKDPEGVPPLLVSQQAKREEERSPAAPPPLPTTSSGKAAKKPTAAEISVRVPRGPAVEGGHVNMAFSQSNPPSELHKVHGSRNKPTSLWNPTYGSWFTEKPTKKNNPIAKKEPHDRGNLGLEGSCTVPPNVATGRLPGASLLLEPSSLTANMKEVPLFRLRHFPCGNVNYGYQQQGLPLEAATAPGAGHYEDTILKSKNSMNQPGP
Protocol for SR (NPM-ALK) cells: as §1, §2

Take `C[C@@H](Oc1cc(-c2cnn(C3CCNCC3)c2)cnc1N)c1c(Cl)ccc(F)c1Cl` [Crizotinib, reference compound]: the results for the pIC50 (in assay [1]; with MOLM13 cells (FLT3-ITD)) were 5.59 and 6.54, respectively.

`Cc1cc(Nc2ncc(Cl)c(Nc3ccccc3S(=O)(=O)C(C)C)n2)c(OC(C)C)cc1C1CCN(C(=O)CCOCCOCCOCCNc2cccc3c2C(=O)N(C2CCC(=O)NC2=O)C3=O)CC1` (centres unmarked) [SIAIS151028, 4-((2-(2-(2-(3-(4-(4-((5-chloro-4-((2-(isopropylsulfonyl)phenyl)amino)pyrimidin-2-yl)amino)-5-isopropoxy-2-methylphenyl)piperidin-1-yl)-3-oxopropoxy)ethoxy)ethoxy)ethyl)amino)-2-(2,6-dioxopiperidin-3-yl)isoindoline-1,3-dione]: the figures for the pIC50 (with SR (NPM-ALK) cells; in assay [3] (CTB (Cell Titer Blue)); in assay [3] (CTG (Cell Titer Glo))) were 7.42, 8.22 and 7.10, respectively. In addition, the DC50 in assay [2] is 20 to 100 nM.

As for `Cc1cc(Nc2ncc(Cl)c(Nc3ccccc3S(=O)(=O)C(C)C)n2)c(OC(C)C)cc1C1CCN(C(=O)CCOCCOCCOCCOCCOCCNc2cccc3c2C(=O)N(C2CCC(=O)NC2=O)C3=O)CC1` (centres unmarked) [SIAIS151029, 4-((18-(4-(4-((5-chloro-4-((2-(isopropylsulfonyl)phenyl)amino)pyrimidin-2-yl)amino)-5-isopropoxy-2-methylphenyl)piperidin-1-yl)-18-oxo-3,6,9,12,15-pentaoxaoctadecyl)amino)-2-(2,6-dioxopiperidin-3-yl)isoindoline-1,3-dione], the DC50 in assay [2] is 10 to 50 nM. In addition, the pIC50 was 7.64 in assay [3] (CTB (Cell Titer Blue)) and 7.02 in assay [3] (CTG (Cell Titer Glo)).

Regarding `Cc1cc(Nc2ncc(Cl)c(Nc3ccccc3S(=O)(=O)C(C)C)n2)c(OC(C)C)cc1C1CCN(C(=O)CCOCCNc2cccc3c2C(=O)N(C2CCC(=O)NC2=O)C3=O)CC1` (centres unmarked) [SIAIS151031, 4-((2-(3-(4-(4-((5-chloro-4-((2-(isopropylsulfonyl)phenyl)amino)pyrimidin-2-yl)amino)-5-isopropoxy-2-methylphenyl)piperidin-1-yl)-3-oxopropoxy)ethyl)amino)-2-(2,6-dioxopiperidin-3-yl)isoindoline-1,3-dione], the pIC50 in the assay on SR (NPM-ALK) cells is 7.07; in assay [3] (CTB (Cell Titer Blue)), 8.15; in assay [3] (CTG (Cell Titer Glo)), 7.09. This molecule also registered a DC50 in assay [2] of 100 to 500 nM.

On to `Cc1cc(Nc2ncc(Cl)c(Nc3ccccc3S(=O)(=O)C(C)C)n2)c(OC(C)C)cc1C1CCN(C(=O)CCCNc2cccc3c2C(=O)N(C2CCC(=O)NC2=O)C3=O)CC1` (centres unmarked) [SIAIS151035, 4-((4-(4-(4-((5-chloro-4-((2-(isopropylsulfonyl)phenyl)amino)pyrimidin-2-yl)amino)-5-isopropoxy-2-methylphenyl)piperidin-1-yl)-4-oxobutyl)amino)-2-(2,6-dioxopiperidin-3-yl)isoindoline-1,3-dione], for which the DC50 in assay [2] is 50 to 100 nM. This molecule gave a pIC50 in assay [3] (CTB (Cell Titer Blue)) of 7.48.

Take `Cc1cc(Nc2ncc(Cl)c(Nc3ccccc3S(=O)(=O)C(C)C)n2)c(OC(C)C)cc1C1CCN(C(=O)CNc2cccc3c2C(=O)N(C2CCC(=O)NC2=O)C3=O)CC1` (centres unmarked) [SIAIS151037, 4-((2-(4-(4-((5-chloro-4-((2-(isopropylsulfonyl)phenyl)amino)pyrimidin-2-yl)amino)-5-isopropoxy-2-methylphenyl)piperidin-1-yl)-2-oxoethyl)amino)-2-(2,6-dioxopiperidin-3-yl)isoindoline-1,3-dione]: the DC50 in assay [2] lay in the range of 50 to 100 nM. This molecule showed a pIC50 in assay [3] (CTB (Cell Titer Blue)) of 6.82.
